According to article PMC6286348, “Inhibitor binding mode and allosteric regulation of Na^+-glucose symporters” (Nature Communications, 2018):
Substitutions are numbered along the chain they refer to.

Tests used:
hSGLT1 S392A/C = test system: hSGLT1 S392A/C; parameters: method as in PMID 22159082; details: oocytes, 22 °C; cited from earlier work
hSGLT1 Q457C = test system: hSGLT1 Q457C; parameters: method as in PMID 22159082; details: oocytes, 22 °C; cited from earlier work
hSGLT1 T395A = target: T1, hSGLT1 T395A (Homo sapiens, UniProt P13866, T395A); test: SGLT current measurement in oocytes, hSGLT1 T395A; type: cell-based; details: 22 °C
T1 construct: expressed in transfected cells; host or cells: Xenopus laevis oocytes injected with cRNA
T1 sequence (P13866 1-664 T395A): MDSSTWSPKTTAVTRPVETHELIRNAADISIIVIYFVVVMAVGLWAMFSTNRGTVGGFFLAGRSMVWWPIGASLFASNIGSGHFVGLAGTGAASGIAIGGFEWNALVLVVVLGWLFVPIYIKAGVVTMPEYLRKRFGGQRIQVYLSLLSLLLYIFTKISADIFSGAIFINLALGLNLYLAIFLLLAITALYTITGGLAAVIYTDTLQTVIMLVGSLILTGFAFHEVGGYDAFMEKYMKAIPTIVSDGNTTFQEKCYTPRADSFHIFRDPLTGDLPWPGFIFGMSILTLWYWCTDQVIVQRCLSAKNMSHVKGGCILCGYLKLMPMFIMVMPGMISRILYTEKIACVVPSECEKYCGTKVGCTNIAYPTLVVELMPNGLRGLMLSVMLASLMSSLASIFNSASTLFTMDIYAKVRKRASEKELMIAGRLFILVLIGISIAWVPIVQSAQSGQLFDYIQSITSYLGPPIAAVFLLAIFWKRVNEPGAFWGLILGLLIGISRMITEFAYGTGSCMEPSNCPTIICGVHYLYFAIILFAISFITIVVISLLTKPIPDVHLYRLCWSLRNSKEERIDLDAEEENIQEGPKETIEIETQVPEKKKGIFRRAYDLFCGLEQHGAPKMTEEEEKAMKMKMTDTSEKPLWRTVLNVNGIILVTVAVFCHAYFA
Procedure: (§1) Xenopus laevis (Nasco) oocytes (V–VI) were prepared as previously described[20] and injected with 50 nl of cRNA (1 μg/μl). […] Briefly, oocytes were incubated for 30 min in the presence of 50 μM αMDG (5 μM [^14C]αMDG) in a buffer containing (in mM) 100 NaCl, 2 KCl, 1 MgCl2, 1 CaCl2, and 10 N-(2-hydroxyethyl)piperazine-N′-(2-ethanesulfonic acid) (HEPES)/Tris (pH 7.5). After incubation, oocytes were rinsed thoroughly with ice-cold buffer containing (mM) 100 choline Cl^–, 2 KCl, 1 MgCl2, 1 CaCl2, and 10 HEPES/Tris (pH 7.5), individually lysed with 5% sodium dodecyl sulfate, and assayed for radioactivity.
(§2) Injected oocytes were incubated at 18 °C, and after 3–4 days, two electrode voltage clamp experiments were performed as previously described. Briefly, SGLT inward glucose currents were measured as a function of the external Na^+ (0–100 mM NaCl), sugar (0–100 mM αMDG), and inhibitors (0.001–100 μM). Steady-state and hSGLT1 capacitive currents were recorded using voltage steps from a holding voltage, Vh of −60 mV, to voltages in the range of −180 to +50 mV in 20 mV increments. The apparent affinity of αMDG, K0.5, was estimated from plots of the inward current as a function of the external αMDG concentration. […] The Na^+-to-αMDG stoichiometry was determined from the reversal potential measurements using the Gibbs free energy as previously described. […]

hSGLT1 F101C = test system: hSGLT1 F101C; parameters: method as in PMID 22159082; details: oocytes, 22 °C; cited from earlier work
hSGLT2 A395T = target: T2, hSGLT2 A395T (Homo sapiens, UniProt P31639, A395T); test: cell-based; details: poor expression; n = 4 oocytes
T2 construct: expressed in transfected cells; host or cells: Xenopus laevis oocytes injected with hSGLT2 A395T cRNA and MAP17 cRNA
T2 sequence (Q13113 whole entry): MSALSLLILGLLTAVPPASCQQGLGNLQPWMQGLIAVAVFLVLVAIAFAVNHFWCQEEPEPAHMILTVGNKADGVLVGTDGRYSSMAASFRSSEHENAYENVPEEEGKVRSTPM
T2 sequence (P31639 whole entry A395T): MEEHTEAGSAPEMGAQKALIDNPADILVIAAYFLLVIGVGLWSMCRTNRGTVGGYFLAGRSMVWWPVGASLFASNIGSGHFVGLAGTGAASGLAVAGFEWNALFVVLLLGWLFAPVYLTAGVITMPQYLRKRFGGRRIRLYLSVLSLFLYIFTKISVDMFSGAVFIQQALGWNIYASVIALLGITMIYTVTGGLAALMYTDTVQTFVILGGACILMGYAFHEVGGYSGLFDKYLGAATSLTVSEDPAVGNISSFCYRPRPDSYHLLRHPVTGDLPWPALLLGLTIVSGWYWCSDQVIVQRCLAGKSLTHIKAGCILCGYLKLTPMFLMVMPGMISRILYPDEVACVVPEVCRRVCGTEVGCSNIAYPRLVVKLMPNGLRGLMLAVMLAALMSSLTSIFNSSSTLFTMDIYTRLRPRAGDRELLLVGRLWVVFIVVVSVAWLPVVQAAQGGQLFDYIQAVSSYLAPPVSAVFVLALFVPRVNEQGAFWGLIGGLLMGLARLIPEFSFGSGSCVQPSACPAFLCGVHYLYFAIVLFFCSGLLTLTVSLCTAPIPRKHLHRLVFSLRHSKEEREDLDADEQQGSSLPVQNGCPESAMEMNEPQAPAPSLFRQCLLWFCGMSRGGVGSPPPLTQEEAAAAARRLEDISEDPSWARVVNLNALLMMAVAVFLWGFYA
Procedure: as §1
Injected oocytes were incubated at 18 °C, and after 3–4 days, two electrode voltage clamp experiments were performed as previously described. Briefly, SGLT inward glucose currents were measured as a function of the external Na^+ (0–100 mM NaCl), sugar (0–100 mM αMDG), and inhibitors (0.001–100 μM). Steady-state and hSGLT1 capacitive currents were recorded using voltage steps from a holding voltage, Vh of −60 mV, to voltages in the range of −180 to +50 mV in 20 mV increments. The apparent affinity of αMDG, K0.5, was estimated from plots of the inward current as a function of the external αMDG concentration. Under our experimental conditions, K0.5 is a close approximation of the αMDG binding constant to the Na^+-bound outward conformation of SGLT. The apparent affinity for Na^+, K0.5, was estimated from plots of the αMDG inward current as a function of external Na^+ concentration. For hSGLT1 the interpretation of K0.5 is more complex owing to the presence of two Na^+ binding sites. In this case, the K0.5 is a lumped coefficient for Na^+ binding to the two sites in the outward-facing hSGLT1 conformation. […] The Na^+-to-αMDG stoichiometry was determined from the reversal potential measurements using the Gibbs free energy as previously described. The stoichiometry determinations were reinforced by estimates of αMDG and Na^+ Hill coefficients, and in some cases, by measurement of ^22Na and [^14C]αMDG uptakes under voltage clamp, [21].

hSGLT1 D268H = target: T3, hSGLT1 D268H (Homo sapiens, UniProt P13866, D268H); test: SGLT current measurement in oocytes, hSGLT1 D268H; type: cell-based; details: 10 mM αMDG, Vm = −50 mV; oocytes, 22 °C
T3 construct: expressed in transfected cells; host or cells: Xenopus laevis oocytes injected with cRNA
T3 sequence (P13866 1-664 D268H): T1 sequence (P13866 1-664 T395A) with D268H, A395T
Procedure: as §1, §2

hSGLT1 S393A/C = test system: hSGLT1 S393A/C; parameters: method as in PMID 22159082; details: oocytes, 22 °C; cited from earlier work
hSGLT1 F453C = test system: hSGLT1 F453C; parameters: method as in PMID 22159082; details: oocytes, 22 °C; cited from earlier work

In the case of `[Na+]` [Na^+], the “K0.5 Na^+” value (hSGLT1 S392A/C) is given as 122 ± 12[20] mM, the “K0.5 Na^+” value (hSGLT1 Q457C) is given as 34 ± 2[20] mM and the “K0.5 Na^+” value (hSGLT1 T395A) is given as 104 ± 50 mM. For the same compound, the “K0.5 Na^+” value (hSGLT1 F101C) was 9 ± 1[20] mM, the “K0.5 Na^+” value (hSGLT2 A395T) was 30 ± 10 mM and the “K0.5 Na^+” value (hSGLT1 D268H) was 17 ± 1.2 mM. The “K0.5 Na^+” value (hSGLT1 S393A/C) was 32 ± 3[20] mM and the “K0.5 Na^+” value (hSGLT1 F453C) was 21 ± 1[20] mM.
